From article PMC8847695 (Frontiers in Chemistry, 2022)

Legend:
Assay type in all cases: binding
Settings in all cases: 1 = hit, 0 = no hit
AAK1 (121-471) = AAK1 (121-471) (Homo sapiens, UniProt Q2M2I8); experiment: STD-NMR fragment screening, AAK1
Procedure: (§1) All fragments were stored at −20°C as solids in argon flushed glass bottles. For NMR screening, fragments were weighed and dissolved in DMSO-d6 to a stock concentration of 300 mM. Mother plates were prepared with a 100 mM concentration. From these plates, daughter plates were prepared with the fragments mixed in the plates to a concentration of 50 mM for each fragment. Daughter plates were opened a maximum of eight times. The plates were argon flushed and sealed with a HT121TS (HTA) and Foil Heat Seal (Biozym).
(§2) For long time measurements, like the protein ^1H NMR spectrum, the buffer exchange was performed twice to reduce residual buffer peaks. All experiments were performed on a Bruker Avance III HDX 700 instrument, equipped with a 5 mm Prodigy TCI cryo-probehead. For every protein, a standard ^1H NMR experiment with 1 k scans and water suppression through presaturation was performed. […] The on-resonance frequency, which was determined from the ^1H NMR spectra of the protein, was between 0.5 and 0.6 ppm; 40 ppm was used as the off-resonance frequency. For an interleaved acquisition of the on- and off-resonance, a pseudo-2D scheme was applied. The saturation was done by Gaussian pulses with a length of 50 ms and 60 dB of attenuation, with an interpulse delay of 1 ms leading to an excitation bandwidth of about 42 Hz. The screening was done with 16 scans of on- and off-resonance scans each, with a 3 s saturation time. The samples contained final concentrations of 20 µM protein, 10% (^V/V) DMSO-d6, and 1 mM of each of the two fragments. A ^1H-NMR experiment was performed for each compound to act as a reference spectrum in the STD experiments. All NMR experiments were carried out at 25°C.
(§3) Fifteen of these compounds contain the same halogen twice. No compound bears mixtures of different halogen atoms. Four proteins (AAK1, CAMK1G, IDO1, and DOT1L) were screened against this HEFLib using STD-NMR. A fragment was considered a hit if the peak intensity in the difference spectrum was three times higher than the local background noise. […] Chemical compatibility and peak complementarity were assured for these mixtures. Samples containing more than two fragments were avoided to minimize the possible target competition and to decrease the risk of fragment interactions. […] The ^1H reference NMR spectrum of the mixture is shown in red for comparison. […] As fragment mixtures can lead to competitive effects between their fragments, it is not advised to use the quantification of peak mixtures for hit ranking.

CAMK1G (1-320) = target: T1, CAMK1G (1-320) (Homo sapiens, UniProt Q96NX5); experiment: STD-NMR fragment screening, CAMK1G
T1 construct: made in house; host or cells: E. coli BL21 (DE3) pLysS
Procedure: as §1, §2, §3

IDO1 (1-435) = target: T2, IDO1 (1-435) (Homo sapiens, UniProt P14902); experiment: STD-NMR fragment screening, IDO1
T2 construct: His-tag of pET15b with TEV site (thrombin site replaced) (cleaved yes); made in house; host or cells: E. coli Rosetta 2 (DE3) pLysS
Procedure: as §1, §2, §3

DOT1L (1-416) = target: T3, DOT1L (1-416) (Homo sapiens, UniProt Q8TEK3); experiment: STD-NMR fragment screening, DOT1L
T3 construct: made in house; host or cells: E. coli BL21 (DE3) pLysS
Procedure: as §1, §2, §3

T3 sequence (Q8TEK3 1-416): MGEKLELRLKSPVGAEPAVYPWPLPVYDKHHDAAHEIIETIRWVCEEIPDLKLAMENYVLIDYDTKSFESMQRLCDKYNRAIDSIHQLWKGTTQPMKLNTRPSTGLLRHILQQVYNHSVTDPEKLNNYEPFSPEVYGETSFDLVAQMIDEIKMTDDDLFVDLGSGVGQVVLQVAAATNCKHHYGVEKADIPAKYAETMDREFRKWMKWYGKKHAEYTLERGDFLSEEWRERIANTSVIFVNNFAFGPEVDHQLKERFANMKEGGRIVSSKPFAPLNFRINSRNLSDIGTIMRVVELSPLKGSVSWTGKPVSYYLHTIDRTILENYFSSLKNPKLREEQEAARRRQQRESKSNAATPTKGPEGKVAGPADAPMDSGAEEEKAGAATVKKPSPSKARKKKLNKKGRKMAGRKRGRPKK
T1 sequence (Q96NX5 1-320): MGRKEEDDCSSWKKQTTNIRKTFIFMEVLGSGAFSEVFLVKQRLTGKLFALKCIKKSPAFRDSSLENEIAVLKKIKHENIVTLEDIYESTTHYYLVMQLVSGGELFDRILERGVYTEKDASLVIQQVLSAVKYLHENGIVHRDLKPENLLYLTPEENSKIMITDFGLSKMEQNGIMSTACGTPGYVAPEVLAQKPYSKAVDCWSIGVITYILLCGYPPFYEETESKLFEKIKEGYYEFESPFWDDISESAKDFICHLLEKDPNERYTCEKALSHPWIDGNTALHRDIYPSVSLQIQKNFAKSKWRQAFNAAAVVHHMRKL
T2 sequence (P14902 whole entry, the tested form may be a part): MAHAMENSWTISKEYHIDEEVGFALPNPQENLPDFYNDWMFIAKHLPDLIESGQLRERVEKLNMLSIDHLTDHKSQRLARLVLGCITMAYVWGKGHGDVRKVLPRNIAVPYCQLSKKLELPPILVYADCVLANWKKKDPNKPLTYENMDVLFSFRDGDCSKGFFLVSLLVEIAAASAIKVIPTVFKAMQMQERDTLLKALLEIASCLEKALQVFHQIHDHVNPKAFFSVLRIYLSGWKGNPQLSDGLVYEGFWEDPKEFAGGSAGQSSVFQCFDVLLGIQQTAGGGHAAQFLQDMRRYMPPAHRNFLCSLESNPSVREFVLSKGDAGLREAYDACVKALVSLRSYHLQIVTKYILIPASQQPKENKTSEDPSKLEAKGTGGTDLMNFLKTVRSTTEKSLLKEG
AAK1 (121-471), sequence (Q2M2I8 46-315 limits assumed): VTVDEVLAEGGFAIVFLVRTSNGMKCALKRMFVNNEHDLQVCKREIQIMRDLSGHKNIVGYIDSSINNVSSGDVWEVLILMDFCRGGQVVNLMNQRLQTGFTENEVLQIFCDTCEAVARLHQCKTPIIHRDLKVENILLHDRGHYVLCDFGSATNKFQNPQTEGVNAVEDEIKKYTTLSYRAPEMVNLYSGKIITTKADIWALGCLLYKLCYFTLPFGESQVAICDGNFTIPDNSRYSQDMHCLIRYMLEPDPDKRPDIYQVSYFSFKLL

| SMILES | AAK1 (STD-NMR hit flag) (AAK1 (121-471)) | CAMK1G (STD-NMR hit flag) (CAMK1G (1-320)) | IDO1 (STD-NMR hit flag) (IDO1 (1-435)) | DOT1L (STD-NMR hit flag) (DOT1L (1-416)) |
| --- | --- | --- | --- | --- |
| Cn1nc(Br)nc1NN [Fragment B02290120] | 0 | 1 | 0 | 1 |
| Clc1ccc(CN2CCNCC2)cn1 [Fragment B02290121] | 0 | 0 | 0 | 0 |
| Brc1csc(CN2CCNCC2)c1 [Fragment B02290122] | 0 | 0 | 0 | 0 |
| Cc1c(Cl)c([N+](=O)[O-])nn1CC(=O)O [Fragment B02290123] | 0 | 0 | 1 | 0 |
| O=C(c1ccc(Br)cc1)C12CN3CN(CN(C3)C1)C2 [Fragment B02290401] | 0 | 0 | 0 | 0 |
| O=S(=O)(CCO)c1n[nH]c(Cl)n1 [Fragment B02290402] | 0 | 0 | 0 | 0 |
| COCn1nc(Br)nc1C(N)=O [Fragment B02290403] | 1 | 0 | 0 | 0 |
| COCn1nc(Br)[nH]c1=O [Fragment B02290404] | 0 | 0 | 0 | 0 |
| Brc1cnc(C2OCCO2)s1 [Fragment B02290407] | 1 | 0 | 0 | 0 |
| O=C(O)C(=O)Nc1ccc(Cl)cn1 [Fragment B02290408] | 0 | 0 | 0 | 0 |
| Cc1n[nH]c(C)c1I [Fragment B02290459] | 1 | 1 | 1 | 1 |
| O=c1[nH]cc(Cl)cc1[N+](=O)[O-] [Fragment B02290460] | 0 | 1 | 0 | 0 |
| Nc1ncc(Br)s1 [Fragment B02290461] | 0 | 0 | 0 | 0 |
| Brc1nnc2n1CCNC2 [Fragment B02290462] | 0 | 0 | 0 | 0 |
| O=C(O)c1n[nH]cc1Br [Fragment B02290463] | 0 | 0 | 0 | 0 |
| N#Cc1n[nH]cc1Br [Fragment B02290464] | 1 | 1 | 1 | 0 |
| Cn1c(Cl)cc(=O)n(C)c1=O [Fragment B02290465] | 1 | 0 | 0 | 0 |
| O=C(O)c1ccc(Cl)o1 [Fragment B02290466] | 0 | 0 | 0 | 0 |
| O=C1Nc2c(Cl)cccc2C1=O [Fragment B02290467] | 0 | 0 | 0 | 0 |
| Clc1cnc2nn[nH]c2c1 [Fragment B02290468] | 0 | 0 | 0 | 0 |
| O=C(O)c1cc(Cl)nnc1Cl [Fragment B02290470] | 0 | 0 | 0 | 0 |

| SMILES | AAK1 (STD-NMR hit flag) (AAK1 (121-471)) | CAMK1G (STD-NMR hit flag) (CAMK1G (1-320)) | IDO1 (STD-NMR hit flag) (IDO1 (1-435)) | DOT1L (STD-NMR hit flag) (DOT1L (1-416)) |
| --- | --- | --- | --- | --- |
| Nc1c(Cl)ccc(O)c1Cl [Fragment B02290471] | 1 | 0 | 0 | 0 |
| Nc1ncnc(C(=O)O)c1Cl [Fragment B02290472] | 0 | 0 | 0 | 0 |
| Fc1cnccc1I [Fragment B02290473] | 1 | 1 | 0 | 0 |
| O=c1[nH]c2ccc(Cl)nc2[nH]1 [Fragment B02290474] | 1 | 0 | 0 | 0 |
| Nc1ncc(Br)cc1CO [Fragment B02290475] | 1 | 1 | 0 | 0 |
| Nc1nc(Cl)nc2[nH]cnc12 [Fragment B02290476] | 0 | 0 | 0 | 0 |
| Clc1cscn1 [Fragment B02290477] | 0 | 0 | 0 | 0 |
| CC(Cn1cc(Cl)cn1)C(=O)O (stereo not drawn) [Fragment B02290481] | 0 | 0 | 0 | 0 |
| Brc1cnc2[nH]nnc2c1 [Fragment B02290482] | 0 | 0 | 0 | 0 |
| CN1CCN(C(CN)c2ccccc2Cl)CC1 (stereo not drawn) [Fragment B02290483] | 0 | 0 | 0 | 0 |
| Cc1onc(N)c1I [Fragment B02290521] | 1 | 1 | 1 | 0 |
| Cc1nn(C)c(Cl)c1S(N)(=O)=O [Fragment B02290522] | 1 | 0 | 1 | 0 |
| O=C(O)c1cc(Br)c[nH]c1=O [Fragment B02290523] | 0 | 0 | 0 | 0 |
| Cn1c(=O)cc(Cl)[nH]c1=O [Fragment B02290524] | 0 | 0 | 0 | 0 |
| Cc1ccc(Cl)c(CN)c1F [Fragment B02290525] | 0 | 0 | 0 | 0 |
| O=C(O)c1c(I)ccnc1F [Fragment B02290658] | 0 | 0 | 0 | 0 |
| O=C(O)c1nccc(Cl)c1Cl [Fragment B02290659] | 0 | 0 | 0 | 0 |
| CN(C)S(=O)(=O)n1nccc1Br [Fragment B02290660] | 1 | 0 | 0 | 1 |
| CC(=O)c1c[nH]c2ncnc(Cl)c12 [Fragment B02290661] | 1 | 1 | 1 | 0 |
| Oc1coc(O)c1Br [Fragment B02291100] | 0 | 0 | 0 | 0 |
| Cc1nc(N)nc(Cl)c1Cl [Fragment B02291102] | 1 | 1 | 1 | 0 |
